# pKi: −log10 of the molar value. Read-outs that look alike come from different tables or passages of the source.
# Experiments:
# CA IX [1] = target: T1, CA IX (Homo sapiens, UniProt Q16790); assay: biochemical
# CA IX [2] = target: T1, CA IX; details: cited from earlier work; for pKi: read-out: Ki
# [3] = experimental value from the library Ki (IDs A…, B…), values equal log10 of Ki in nM
# [4] = library compounds with IDs A… and B…, from observed Ki (nM)
# [5] = experimental value used for the QSPR model, library compounds (IDs A…, B…), equals log10 of Ki in nM
# [6] = library compounds (IDs A…, B…), values equal log10 of Ki in nM, ref ChEMBL and BindingDB
# [7] = library compounds (IDs A…, B…) of Table S4, ref ChEMBL and BindingDB
# [8] = observed Ki of library compounds (IDs A…, B…), ref ChEMBL and BindingDB
compound,measurement,setting,value
N#C/C(=C\c1ccc2c(c1)OCO2)C(=O)Nc1ccc(S(N)(=O)=O)cc1 [A0636],log10 of Ki in nM,CA IX [1]; [3],0.978
COC(=O)c1cn(-c2ccc(S(N)(=O)=O)cc2)nc1-c1ccc(F)cc1 [A0626],log10 of Ki in nM,CA IX [1]; [3],0.973
NS(=O)(=O)c1ccc(NC(=S)N[C@@H]2O[C@H](CO)[C@H](O)[C@H](O)[C@H]2O)cc1 [A0430],log10 of Ki in nM,CA IX [1]; [3],0.845
COc1ccc(NC(=S)Nc2c(C#N)c(-c3ccc(Br)cc3)cn2-c2ccc(S(N)(=O)=O)cc2)cc1 [A1714],log10 of Ki in nM,CA IX [1]; [4],2.149
O=S1(=O)C=Cc2cc(-n3nncc3-c3cccc(C(F)(F)F)c3)ccc2O1 [A0646],log10 of Ki in nM,CA IX [1]; [4],0.982
NS(=O)(=O)c1ccc(/N=c2\scc(-c3ccc(Br)cc3)n2C2CCCCC2)cc1 [A1905],log10 of Ki in nM,CA IX [1]; [4],2.442
NS(=O)(=O)c1ccc(C(=O)NCc2cn([C@@H]3O[C@H](CO)[C@H](O)[C@H](O)[C@H]3O)nn2)cc1 [A1960],log10 of Ki in nM,CA IX [1],2.556
NC(=S)NNC(=O)c1ccncc1 [A2157],log10 of Ki in nM,CA IX [1]; [4],2.988
NS(=O)(=O)c1ccc(-c2cnc(C3CCC3)o2)cc1 [B0121],log10 of Ki in nM,CA IX [1]; [3],0.813
O=S1(=O)C=Cc2cc(-n3cnnn3)ccc2O1 [A1395],log10 of Ki in nM,CA IX [1]; [5],1.836
Cc1cc(C)c(S(=O)(=O)Nc2ccc(C3C4=C(CC(C)(C)CC4=O)N(c4ccc(S(N)(=O)=O)cc4)C4=C3C(=O)CC(C)(C)C4)cc2)c(C)c1 [A1534],log10 of Ki in nM,CA IX [1]; [5],1.954
Cc1ccc(NC(=S)NNC(=O)c2ccccc2O)cc1 [A2191],log10 of Ki in nM,CA IX [1]; [5],3.095
Cc1cccc(Nc2nc(Cl)nc(Nc3ccc(S(N)(=O)=O)cc3)n2)c1 [A0317],log10 of Ki in nM,CA IX [1]; [5],0.708
NS(=O)(=O)c1ccc(-n2cc(-c3ccc(Br)cc3)c3c2ncn2nc4c5ccccc5nc-4nc32)cc1 [B0025],log10 of Ki in nM,CA IX [1]; [5],0.431
O=NCc1c(O)ccc(-c2ccc(O)cc2)c1Cl [B0828],log10 of Ki in nM,CA IX [1]; [5],3.780
NS(=O)(=O)c1cc(-c2cnc(C(=O)N3CCOCC3)o2)cs1 [B0343],log10 of Ki in nM,CA IX [1]; [5],1.447
CC(=O)OC[C@H]1O[C@@H](n2cc(-c3ccc(S(N)(=O)=O)cc3)nn2)[C@@H](OC(C)=O)[C@@H](OC(C)=O)[C@@H]1OC(C)=O [B0096],log10 of Ki in nM,CA IX [2],0.699
same,pKi,CA IX [2],8.30
COc1ccc(/C=C\C(=O)C[C@H]2O[C@H](COC(C)=O)[C@@H](OC(C)=O)[C@@H](OC(C)=O)[C@@H]2OC(C)=O)cc1OC [B0756],pKi,"CA IX [2]; library compounds (IDs A…, B…), observed Ki towards CA IX, ref ChEMBL and BindingDB",6.12
same,log10 of Ki in nM,CA IX [2]; [6],2.877
NS(=O)(=O)c1ccc(-c2cn([C@H]3O[C@H](CO)[C@@H](O)[C@@H](O)[C@H]3O)nn2)cc1 [B0619],log10 of Ki in nM,CA IX [2],2.079
same,pKi,CA IX [2],6.92
COc1cc(/C=C\C(=O)OCCCCO[N+](=O)[O-])ccc1OC(=O)c1ccc(S(N)(=O)=O)cc1 [B0225],log10 of Ki in nM,CA IX [2],1.041
same,pKi,CA IX [2],7.96
CCCN(CCC)S(=O)(=O)c1ccc(C(=O)N[C@H](CO)C(N)=O)cc1 [B0020],log10 of Ki in nM,CA IX [2],0.415
same,pKi,CA IX [2],8.59
"CCCN(CCC)S(=O)(=O)c1ccc(C(=O)N[C@H](C)C(N)=O)cc1 [B0254, reference compound]",pKi,"CA IX [2]; CA IX, library ligands, ref ChEMBL[43] and BindingDB[44]",7.82
same,log10 of Ki in nM,"CA IX [2]; CA IX, observed value, equals log of Ki in nM, ref ChEMBL[43] and BindingDB[44]",1.176
NS(=O)(=O)c1ccc2c(c1)S(=O)(=O)C[C@H]2OCc1ccccc1 [A0131],pKi,CA IX [2]; [7],8.55
same,log10 of Ki in nM,CA IX [2]; [6],0.447
CC(=O)OC[C@@H]1O[C@@H](SCc2nnn(-c3ccc(S(N)(=O)=O)cc3)c2I)[C@H](OC(C)=O)[C@@H](OC(C)=O)[C@@H]1OC(C)=O [B0581],log10 of Ki in nM,"CA IX [2]; experimental pKi towards CA IX, library compounds, ref ChEMB database (ID A), BindingDB (ID B)",1.978
same,pKi,"CA IX [2]; observed Ki towards CA IX, library compounds, ref ChEMB database (ID A), BindingDB (ID B)",7.02
NS(=O)(=O)c1ccc(N[C@H]2SC[C@H](c3ccc(F)cc3F)N2C2CCCCC2)cc1 [B0547],log10 of Ki in nM,CA IX [2]; [6],1.934
same,pKi,CA IX [2]; [8],7.07
N#C/C(=C/C=C\c1ccccc1)C(=O)Nc1ccc(S(N)(=O)=O)cc1 [B0085],log10 of Ki in nM,"CA IX [2]; library compounds (IDs A..., B...), values equal log10 of Ki in nM, ref ChEMBL, BindingDB",0.690
same,pKi,"CA IX [2]; observed Ki of library compounds (IDs A..., B...), ref ChEMBL, BindingDB",8.31
COc1ccc2c(c1)CCN[C@H]2c1ccc(S(N)(=O)=O)cc1 [A0785],log10 of Ki in nM,CA IX [2],1.188
same,pKi,CA IX [2],7.81
CC(=O)OC[C@@H]1O[C@H](S(=O)(=O)Cc2cn(-c3ccc(S(N)(=O)=O)cc3)nn2)[C@@H](OC(C)=O)[C@H](OC(C)=O)[C@H]1OC(C)=O [B0149],log10 of Ki in nM,CA IX [2],0.875
same,pKi,CA IX [2],8.12
CCOc1ccc2c(c1)CCN(S(N)(=O)=O)[C@H]2c1ccc(S(N)(=O)=O)cc1 [A1289],log10 of Ki in nM,CA IX [2],1.717
same,pKi,CA IX [2],7.28
COc1ccc2c(c1)CCN(S(N)(=O)=O)[C@H]2c1ccc(C#N)cc1 [A0427],pKi,CA IX [2]; [7],8.15
same,log10 of Ki in nM,CA IX [2]; [6],0.845
CC1(C)O[C@H]2[C@H](CO[C@]3(CNC(=S)Nc4ccc(S(N)(=O)=O)cc4)OC(C)(C)O[C@H]23)O1 [B0536],log10 of Ki in nM,CA IX [2],1.914
same,pKi,CA IX [2],7.09
CC1=CC(C)C=C(C)N1CCc1ccccc1C [B0765],log10 of Ki in nM,CA IX [2]; [6],2.919
same,pKi,CA IX [2]; [8],6.08

# Source: publication PMC6151961 (Journal of Enzyme Inhibition and Medicinal Chemistry, 2018)
